From PMC10815578 (International Journal of Molecular Sciences, 2024)
Where “and” joins values, the source holds several entries; their conditions need not be identical. Equal entries are not always repeated. Where two headings read alike, the source gives them in different places.

Columns and labels:
OATP2B1 = conditions: Supplementary table, ref previous reports (superscript numbers), cited from earlier work; for IC50: read-out: OATP2B1 IC50; for Ki: read-out: OATP2B1 Ki (asterisk)
OATP4C1 [1] = target: T1, OATP4C1 (Homo sapiens, UniProt Q6ZQN7); experiment: Inhibition of OATP4C1-mediated T3 uptake in OATP4C1/MDCKII cells; conditions: for inhibition at 10 min, 100 µM: human; for alteration of OATP4C1-mediated transport (in words): 100 µM (theaflavin 50 µM); for Ki: Ki for OATP4C1 (average)
T1 sequence (Q6ZQN7 1-724): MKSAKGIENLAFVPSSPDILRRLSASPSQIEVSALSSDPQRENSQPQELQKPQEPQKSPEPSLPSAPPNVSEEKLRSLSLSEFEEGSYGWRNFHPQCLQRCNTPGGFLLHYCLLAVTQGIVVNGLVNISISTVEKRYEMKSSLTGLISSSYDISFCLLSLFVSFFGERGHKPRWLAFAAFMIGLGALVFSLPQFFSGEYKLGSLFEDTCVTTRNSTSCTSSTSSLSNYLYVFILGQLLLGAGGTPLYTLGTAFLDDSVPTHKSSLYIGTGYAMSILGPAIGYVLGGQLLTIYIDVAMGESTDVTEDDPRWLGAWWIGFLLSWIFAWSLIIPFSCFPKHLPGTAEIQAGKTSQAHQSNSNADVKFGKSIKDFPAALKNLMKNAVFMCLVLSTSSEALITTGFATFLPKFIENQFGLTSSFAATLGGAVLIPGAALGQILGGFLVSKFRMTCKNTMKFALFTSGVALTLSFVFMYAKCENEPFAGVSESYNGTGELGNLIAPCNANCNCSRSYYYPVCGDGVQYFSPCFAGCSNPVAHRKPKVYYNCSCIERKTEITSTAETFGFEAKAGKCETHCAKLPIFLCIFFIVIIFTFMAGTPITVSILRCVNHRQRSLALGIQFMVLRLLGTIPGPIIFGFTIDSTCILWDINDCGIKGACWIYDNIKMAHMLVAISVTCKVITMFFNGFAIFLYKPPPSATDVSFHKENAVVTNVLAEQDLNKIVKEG
Description: Figure 3 Screening of the effect of food ingredients on OATP4C1-mediated transport. Cells were incubated with 1 µM T3 with or without food ingredients for 10 min at 37 °C. The concentration of the compounds was 100 µM, except for theaflavin (50 µM). The amount of OATP4C1-mediated uptake was calculated by subtracting the nonspecific uptake of T3 by mock cells from the total cellular uptake by OATP4C1-expressing cells. […] Dashed line represents 100% (control uptake in the absence of food ingredient).
The MDCKII cells transfected with OATP4C1 or an empty vector were established in our laboratory [18].
The cellular uptake of T3 was measured in monolayer cell cultures grown in 24-well plates. Cells were seeded at a density of 2.0 × 10^5 cells/well. Thereafter, the cells were incubated in a culture medium containing 5 mM sodium butyrate for 24 h before the uptake study. […] Cellular uptake was initiated by adding T3-containing KH buffer with or without each flavonoid. Uptake was terminated after 10 min by replacing the incubation buffer with ice-cold KH buffer. The cells were washed twice with ice-cold KH buffer. The concentration of T3 was measured using liquid chromatography/tandem mass spectrometry (LC/MS/MS). Cellular uptake was presented as the uptake amount divided by the amount of cellular protein quantified using the Bradford protein assay. The experiment was performed in triplicate (n = 3) and repeated three times. Flavonoids, except ellagic acid, were dissolved in dimethyl sulfoxide (DMSO) at a final concentration of less than 0.5%. A stock solution of ellagic acid (20 mM) was obtained by dissolving it in 0.05 M NaOH and was further diluted to 100 µM in KH buffer (the pH was adjusted to 7.4).
The experiment was performed in triplicate (n = 3) and repeated three times.

OAT1 = conditions: Supplementary table; ref previous reports (superscript numbers); cited from earlier work
OAT3 = conditions: Supplementary table; ref previous reports (superscript numbers); cited from earlier work
OATP1B3 = conditions: Supplementary table, ref previous reports (superscript numbers), cited from earlier work; for IC50: read-out: OATP1B3 IC50; for Ki: read-out: OATP1B3 Ki (asterisk)
OATP1B1 = conditions: Supplementary table, ref previous reports (superscript numbers), cited from earlier work; for IC50: read-out: OATP1B1 IC50; for Ki: read-out: OATP1B1 Ki (asterisk)
OATP4C1 [2] = target: T1, OATP4C1; experiment: Kinetic analysis of OATP4C1-mediated T3 uptake in the presence of inhibitors; type: cell-based; parameters: expressed in transfected cells; sodium butyrate induction before uptake
Description: Data are shown as the mean ± SE (n = 6). The kinetic curves were fitted to the Michaelis–Menten equation. […] Each curve represents the fitted line obtained by the kinetic analysis by JMP Pro 16.
The kinetic curves were fitted to the Michaelis–Menten equation. […] The experiment was performed in duplicate (n = 2) and repeated three times.

P-gp = conditions: Supplementary table; ref 40 of the supplement; cited from earlier work
[3] = pH 7.4, probe T3 (1 µM), OATP4C1 inhibition degree, 100 µM, Supplementary table
[4] = pH 7.4, probe T3 (1 µM), inhibition of OATP4C1-mediated transport, 100 µM compound, 1 µM T3, 10 min, 37 °C, without AA

SMILES | inhibition at 10 min, 100 µM (OATP4C1 [1]; [3]) [%] | inhibition at 10 min, 100 µM (OATP4C1 [1]; [4]) [%] | OATP4C1 inhibition or elevation (class) (OATP4C1 [1]; Supplementary table) | inhibitory effect on OATP4C1-mediated transport in the presence of AA compared with its absence (OATP4C1 [1]; 100 µM compound, 10 µM AA) | IC50 (OATP2B1) | IC50 (OATP1B3) [µM] | further results
O=c1c(-c2ccc(O)cc2)coc2cc(O)ccc12 [daidzein] | 40 | 40 |  |  | 22.3 µM and 20.7 µM |  | OATP4C1 inhibition or elevation (class) (OATP4C1 [1]): Yes; inhibitory effect on OATP4C1-mediated transport in the presence of AA compared with its absence (OATP4C1 [1]): weakened
O=c1oc2c(O)c(O)cc3c(=O)oc4c(O)c(O)cc1c4c23 [ellagic acid] |  |  | Elevation |  |  |  | IC50 (OAT1): 0.207 µM; alteration of OATP4C1-mediated transport (in words) (OATP4C1 [1]; 1 µM T3, 10 min, without AA): did not inhibit; elevation of OATP4C1-mediated transport (OATP4C1 [1]; 100 µM compound, 1 µM T3, 10 min, 37 °C, without AA): 13%; OATP4C1 elevation degree (OATP4C1 [1]; 100 µM, Supplementary table): 13%
COc1cc(/C=C/C(=O)O)ccc1O [ferulic acid, Ferulic acid] |  |  | No |  |  |  | IC50 (OAT1): 9.01 µM; IC50 (OAT3): 7.35 ± 3.73 µM; alteration of OATP4C1-mediated transport (in words) (OATP4C1 [1]; 1 µM T3, 10 min, without AA): did not inhibit
O=c1c(O)c(-c2ccc(O)c(O)c2)oc2cc(O)ccc12 [fisetin] |  | 24 | No | weakened |  |  | 
O=C(O)c1cc(O)c(O)c(O)c1 [gallic acid, Gallic acid] |  |  |  |  |  | 1.6 ± 0.6 | 
COc1cc(-c2oc3cc(O)cc(O)c3c(=O)c2O)ccc1O [isorhamnetin] |  |  | Yes | weakened | 0.82 µM | 3.1 | inhibition at 10 min, 100 µM (OATP4C1 [1]; pH 7.4): 18%
O=c1c(O)c(-c2ccc(O)cc2)oc2cc(O)cc(O)c12 [kaempferol] |  |  |  |  | 20.7 ± 1.8 µM |  | Vmax of OATP4C1-mediated T3 uptake in the presence of the inhibitor (OATP4C1 [2]; inhibitor 30 µM, 10 µM AA, 10 min, 37 °C): 517 ± 92.6 pmol/mg Protein/10 min; manner of inhibition of OATP4C1-mediated T3 uptake (OATP4C1 [2]; kinetic analysis): competitive manner; Ki (OATP2B1): 15.1 ± 7.8 µM; Ki (OATP1B3): 24.4 ± 1.8 µM; IC50 (OATP4C1 [1]; IC50 for OATP4C1, AA(+) 10 µM, 1 µM T3, 10 min): 33.7 µM; IC50 (OATP4C1 [1]; IC50 for OATP4C1, AA(−), 1 µM T3, 10 min): 29.3 µM; Ki (OATP4C1 [1]; AA(+) 10 µM, 1 µM T3, 10 min): 28.8 µM; Ki (OATP4C1 [1]; AA(−), 1 µM T3, 10 min): 25.1 µM; IC50 (OATP1B1): 32.4 µM and 33 µM; Ki (OATP1B1): 16 ± 1.9 µM
O=c1c(O)c(-c2ccc(O)c(O)c2)oc2cc(O)cc(O)c12 [quercetin] | 50 | ≥ 50 | Yes | weakened |  | 3.22 | Ki (OATP2B1): 8.7 ± 0.1 µM; Ki (OATP1B3): 7.8 ± 1.7 µM; Ki (OATP1B1): 8.8 ± 0.8 µM

The next lines start with results.

inhibition at 10 min, 100 µM (OATP4C1 [1]; [3]) [%] | inhibition at 10 min, 100 µM (OATP4C1 [1]; [4]) [%] | OATP4C1 inhibition or elevation (class) (OATP4C1 [1]; Supplementary table) | inhibitory effect on OATP4C1-mediated transport in the presence of AA compared with its absence (OATP4C1 [1]; 100 µM compound, 10 µM AA) | SMILES | IC50 (OATP2B1) | IC50 (OATP1B3) [µM] | further results
 |  | Yes | weakened | O=c1c(-c2ccc(O)cc2)coc2cc(O)cc(O)c12 [genistein] |  |  | inhibition at 10 min, 100 µM (OATP4C1 [1]; pH 7.4): 42%; IC50 (OATP1B1): 14.9 ± 3.76 µM
52 | ≥ 50 | Yes | weakened | O=c1cc(-c2ccc(O)c(O)c2)oc2cc(O)cc(O)c12 [luteolin] | 0.42 µM |  | IC50 (OAT3): 4.2 µM
57 | ≥ 50 | Yes | weakened | O=c1c(O)c(-c2ccc(O)cc2O)oc2cc(O)cc(O)c12 [morin] |  |  | IC50 (OAT1): < 0.3 µM and 0.5 µM
46 | 46 |  |  | Oc1ccc(/C=C/c2cc(O)cc(O)c2)cc1 [resveratrol, Resveratrol] | 8.3 µM | 11.6 | IC50 (P-gp): 6.64 µM; IC50 (OATP1B1): 9.1 µM
